Pest or weed control and herbicidal activity data for 9 compounds are collected here from patent US11261177B2, “Benzoxazinone derivatives useful as herbicides” (REDAG CROP PROTECTION LTD, priority 2017, dated 2022).

Where only a bound is given, the exact number is not on record here.

What all share (format): in vivo
Experiment [1] has as its system Lolium perenne. Briefly: Pre-emergence herbicidal assay, 96 cell trays, glasshouse. The settings on record: 168 h, Lollium, assessed 7 days after treatment, read-out: % control of plant growth; for pest or weed control at 200 g/ha: 0.2 kg/ha; for pest or weed control at 1000 g/ha: 1 kg/ha; for pest or weed control at 5000 g/ha: 5 kg/ha. Summed up: (§1)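 Read-out: % control of plant growth per cell, assessed 7 days post-treatment in an uncontrolled glasshouse. Doses 0.2, 1, 5 kg/ha; pre-emergence treatment 1 day after sowing, post-emergence spray at two weeks.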

Experiment [2] concerns Stellaria media—Chickweed. Described as above. The settings on record: 168 h, assessed 7 days after treatment, read-out: % control of plant growth; for pest or weed control at 200 g/ha: 0.2 kg/ha; for pest or weed control at 1000 g/ha: 1 kg/ha; for pest or weed control at 5000 g/ha: 5 kg/ha. The method, boiled down:
as §1

Experiment [3] relates to Lolium perenne. Nature of the experiment: Post-emergence herbicidal assay, 96 cell trays, glasshouse. The settings on record: 168 h, Lollium, assessed 7 days after treatment, read-out: % control of plant growth; for pest or weed control at 200 g/ha: 0.2 kg/ha; for pest or weed control at 1000 g/ha: 1 kg/ha; for pest or weed control at 5000 g/ha: 5 kg/ha. Summed up: as §1
In experiment [4] the test system is Stellaria media—Chickweed. Described as above. The settings on record: 168 h, assessed 7 days after treatment, read-out: % control of plant growth; for pest or weed control at 200 g/ha: 0.2 kg/ha; for pest or weed control at 1000 g/ha: 1 kg/ha; for pest or weed control at 5000 g/ha: 5 kg/ha. The method, boiled down:
as §1

For experiment [5], the system named is 2 weed species (Stellaria media—Chickweed and Lolium perenne). Briefly: Herbicidal activity screen, summary in words over both weed species. The settings on record: pre- and post-emergence, 0.2, 1 and 5 kg/ha. How it is done: The compounds were screened at three concentrations (0.2, 1 and 5 kg/ha) against 2 weed species (Stellaria media—Chickweed and Lolium perenne). The seeds were sown in the cells of 96 cell trays (4-6 seeds per cell). For the pre-emergence assay, 75 μL of a suspension of the test compound, at the above doses, was added on top of the soil 1 day after sowing. For the post-emergence assay, the seedlings were sprayed with 200 μL of a suspension of the test compound two weeks after sowing. The formulation used is 25% acetone and 75% water/0.01% Tween 20. Each treatment was replicated three times. The plants were kept in a glasshouse (uncontrolled conditions) and assessed 7 days after treatment. A small number of compounds were tested in a first trial. A larger number of compounds were tested in a second trial. The assessment was based on the % control of plant growth in each cell.

With `C#CCN1C(=O)C2(CC2)Oc2cc(F)c(-n3ncc(C(F)(F)F)c(C)c3=O)cc21` [Example 4, 7-Fluoro-6-(5-methyl-6-oxo-4-(trifluoromethyl)pyridazin-1(6H)-yl)-4-(prop-2-yn-1-yl)spiro[benzo[b][1,4]oxazine-2,1′-cyclopropan]-3(4H)-one], the pest or weed control at 200 g/ha in experiment [1] (first trial (Table 1)), in experiment [1] (second trial (Table 2)), in experiment [2] (first trial (Table 1)), in experiment [2] (second trial (Table 2)), in experiment [3] (first trial (Table 1)) and in experiment [3] (second trial (Table 2)) was 80 to 100% in each case. Further, the pest or weed control at 200 g/ha in experiment [4] (first trial (Table 1)) is 20 to 80%; in experiment [4] (second trial (Table 2)) it was 80 to 100%. The pest or weed control at 1000 g/ha in experiment [1] (first trial (Table 1)), in experiment [1] (second trial (Table 2)), in experiment [2] (first trial (Table 1)), in experiment [2] (second trial (Table 2)), in experiment [3] (first trial (Table 1)) and in experiment [3] (second trial (Table 2)) was 80 to 100% in each case. For the same compound, the pest or weed control at 1000 g/ha in experiment [4] (first trial (Table 1)) lay in the range of 20 to 80%; in experiment [4] (second trial (Table 2)), 80 to 100%. Besides, the pest or weed control at 5000 g/ha in experiment [1] (first trial (Table 1)), in experiment [1] (second trial (Table 2)), in experiment [2] (first trial (Table 1)), in experiment [2] (second trial (Table 2)), in experiment [3] (first trial (Table 1)) and in experiment [3] (second trial (Table 2)) was 80 to 100% throughout. In addition, the pest or weed control at 5000 g/ha in experiment [4] (first trial (Table 1)) fell in the range of 20 to 80%; in experiment [4] (second trial (Table 2)), 80 to 100%. For the same compound, the herbicidal activity result in experiment [5] is given as “excellent herbicidal activity against all tested species”.

Take `C#CCN1C(=O)C2(CC2)Oc2cc(F)c(N3C(=O)c4ccc(C)cc4C3=O)cc21` [Example 8]: the pest or weed control at 200 g/ha in experiment [1] (second trial (Table 2)) is 20 to 80%; in experiment [2] (second trial (Table 2)) it was 80 to 100%; in experiment [3] (second trial (Table 2)) it was 20 to 80%; in experiment [4] (second trial (Table 2)) it was 80 to 100%. In addition, the pest or weed control at 1000 g/ha in experiment [1] (second trial (Table 2)), in experiment [2] (second trial (Table 2)), in experiment [3] (second trial (Table 2)) and in experiment [4] (second trial (Table 2)) was 80 to 100% in each case. Moreover, the pest or weed control at 5000 g/ha in experiment [1] (second trial (Table 2)), in experiment [2] (second trial (Table 2)), in experiment [3] (second trial (Table 2)) and in experiment [4] (second trial (Table 2)) was 80 to 100% each time. Moreover, the herbicidal activity entry in experiment [5] is on record as “excellent herbicidal activity against all tested species”.

On to `COC(=O)C(C)N1C(=O)C2(CC2)Oc2cc(F)c(N3C(=O)C4=C(CCCC4)C3=O)cc21` (stereo not drawn) [Example 15], for which the pest or weed control at 200 g/ha in experiment [1] (second trial (Table 2)) was in the range of 20 to 80%; in experiment [2] (second trial (Table 2)) it was 80 to 100%; in experiment [3] (second trial (Table 2)) it was 20 to 80%; in experiment [4] (second trial (Table 2)) it was 80 to 100%. In addition, the pest or weed control at 1000 g/ha in experiment [1] (second trial (Table 2)), in experiment [2] (second trial (Table 2)), in experiment [3] (second trial (Table 2)) and in experiment [4] (second trial (Table 2)) was 80 to 100% each time. In addition, the pest or weed control at 5000 g/ha in experiment [1] (second trial (Table 2)), in experiment [2] (second trial (Table 2)), in experiment [3] (second trial (Table 2)) and in experiment [4] (second trial (Table 2)) was 80 to 100% throughout. For the same compound, the herbicidal activity entry in experiment [5] was “excellent herbicidal activity against all tested species”.

In the case of `CCOC(=O)C(C)N1C(=O)C2(CC2)Oc2cc(F)c(N3C(=O)C4=C(CCCC4)C3=O)cc21` (stereo not drawn) [Example 18], the pest or weed control at 200 g/ha lay within 80 to 100% in experiment [1] (second trial (Table 2)), 80 to 100% in experiment [2] (second trial (Table 2)), 20 to 80% in experiment [3] (second trial (Table 2)) and 80 to 100% in experiment [4] (second trial (Table 2)). Besides, the pest or weed control at 1000 g/ha in experiment [1] (second trial (Table 2)), in experiment [2] (second trial (Table 2)), in experiment [3] (second trial (Table 2)) and in experiment [4] (second trial (Table 2)) was 80 to 100% each time. The pest or weed control at 5000 g/ha in experiment [1] (second trial (Table 2)), in experiment [2] (second trial (Table 2)), in experiment [3] (second trial (Table 2)) and in experiment [4] (second trial (Table 2)) was 80 to 100% throughout. Moreover, the herbicidal activity result in experiment [5] is “excellent herbicidal activity against all tested species”.

Consider `CCOC(=O)C(C)N1C(=O)C2(CC2)Oc2cc(F)c(N3C(=O)c4ccc(F)cc4C3=O)cc21` (stereo not drawn) [Example 19], for which the pest or weed control at 200 g/ha lay within 20 to 80% in experiment [1] (second trial (Table 2)), 80 to 100% in experiment [2] (second trial (Table 2)), 20 to 80% in experiment [3] (second trial (Table 2)) and 80 to 100% in experiment [4] (second trial (Table 2)). Further, the pest or weed control at 1000 g/ha in experiment [1] (second trial (Table 2)), in experiment [2] (second trial (Table 2)), in experiment [3] (second trial (Table 2)) and in experiment [4] (second trial (Table 2)) was 80 to 100% each time. Besides, the pest or weed control at 5000 g/ha in experiment [1] (second trial (Table 2)), in experiment [2] (second trial (Table 2)), in experiment [3] (second trial (Table 2)) and in experiment [4] (second trial (Table 2)) was 80 to 100% throughout. In addition, the herbicidal activity result in experiment [5] is on record as “excellent herbicidal activity against all tested species”.

Take `O=C1c2ccc(F)cc2C(=O)N1c1cc2c(cc1F)OC1(CC1)C(=O)N2CC1CC1` [Example 26]: the pest or weed control at 200 g/ha in experiment [1] (second trial (Table 2)), in experiment [2] (second trial (Table 2)), in experiment [3] (second trial (Table 2)) and in experiment [4] (second trial (Table 2)) was 80 to 100% throughout. The pest or weed control at 1000 g/ha in experiment [1] (second trial (Table 2)), in experiment [2] (second trial (Table 2)), in experiment [3] (second trial (Table 2)) and in experiment [4] (second trial (Table 2)) was 80 to 100% throughout. In addition, the pest or weed control at 5000 g/ha in experiment [1] (second trial (Table 2)), in experiment [2] (second trial (Table 2)), in experiment [3] (second trial (Table 2)) and in experiment [4] (second trial (Table 2)) was 80 to 100% throughout. Moreover, the herbicidal activity result in experiment [5] is listed as “excellent herbicidal activity against all tested species”.

On to `COCCN1C(=O)C2(CC2)Oc2cc(F)c(N3C(=O)c4ccc(F)cc4C3=O)cc21` [Example 27], for which the pest or weed control at 200 g/ha in experiment [1] (second trial (Table 2)) was 20 to 80%; in experiment [2] (second trial (Table 2)) it was 80 to 100%; in experiment [3] (second trial (Table 2)), 20 to 80%; in experiment [4] (second trial (Table 2)), 80 to 100%. Also, the pest or weed control at 1000 g/ha in experiment [1] (second trial (Table 2)), in experiment [2] (second trial (Table 2)), in experiment [3] (second trial (Table 2)) and in experiment [4] (second trial (Table 2)) was 80 to 100% in each case. In addition, the pest or weed control at 5000 g/ha in experiment [1] (second trial (Table 2)), in experiment [2] (second trial (Table 2)), in experiment [3] (second trial (Table 2)) and in experiment [4] (second trial (Table 2)) was 80 to 100% each time. For the same compound, the herbicidal activity entry in experiment [5] is on record as “excellent herbicidal activity against all tested species”.

As to `C#CCN1C(=O)C2(CC2)Oc2cc(F)c(N3C(=O)CCC3=O)cc21` [Example 28, 1-(7-Fluoro-3-oxo-4-(prop-2-yn-1-yl)-3,4-dihydrospiro[benzo[b][1,4]oxazine-2,1′-cyclopropan]-6-yl)pyrrolidine-2,5-dione], the pest or weed control at 200 g/ha in experiment [1] (second trial (Table 2)) lay in the range of 80 to 100%; in experiment [2] (second trial (Table 2)), 80 to 100%; in experiment [3] (second trial (Table 2)), 20 to 80%; in experiment [4] (second trial (Table 2)) it was 80 to 100%. The pest or weed control at 1000 g/ha in experiment [1] (second trial (Table 2)), in experiment [2] (second trial (Table 2)), in experiment [3] (second trial (Table 2)) and in experiment [4] (second trial (Table 2)) was 80 to 100% in each case. In addition, the pest or weed control at 5000 g/ha in experiment [1] (second trial (Table 2)), in experiment [2] (second trial (Table 2)), in experiment [3] (second trial (Table 2)) and in experiment [4] (second trial (Table 2)) was 80 to 100% in each case. Also, in experiment [5], the herbicidal activity result is “excellent herbicidal activity against all tested species”.

In the case of `C#CCN1C(=O)C2(CC2)Oc2cc(F)c(N3C(=O)CC(C)CC3=O)cc21` [Example 29, 1-(7-Fluoro-3-oxo-4-(prop-2-yn-1-yl)-3,4-dihydrospiro[benzo[b][1,4]oxazine-2,1′-cyclopropan]-6-yl)-4-methylpiperidine-2,6-dione], the pest or weed control at 200 g/ha in experiment [1] (second trial (Table 2)) is 80 to 100%; in experiment [2] (second trial (Table 2)), 80 to 100%; in experiment [3] (second trial (Table 2)), under 20%; in experiment [4] (second trial (Table 2)) it was 80 to 100%. Besides, the pest or weed control at 1000 g/ha in experiment [1] (second trial (Table 2)) lay in the range of 80 to 100%; in experiment [2] (second trial (Table 2)) it was 80 to 100%; in experiment [3] (second trial (Table 2)), 20 to 80%; in experiment [4] (second trial (Table 2)), 80 to 100%. Moreover, the pest or weed control at 5000 g/ha in experiment [1] (second trial (Table 2)) lay within 80 to 100%; in experiment [2] (second trial (Table 2)) it was 80 to 100%; in experiment [3] (second trial (Table 2)), 20 to 80%; in experiment [4] (second trial (Table 2)), 80 to 100%. For the same compound, in experiment [5], the herbicidal activity result is reported as “excellent herbicidal activity against all tested species”.
